Measured values published in ChEMBL document CHEMBL3217621, “Diaryl ether derivatives as anticancer agents a review” (Medchemcomm, 2012).

What was measured:
[1] = Inhibition of GGPTase-1 (unknown origin); set-up: species or system Homo sapiens
[2] = biological target: T1, Interstitial collagenase (Homo sapiens, UniProt P03956); test: Inhibition of MMP-1 (unknown origin)
T1 sequence (P03956 whole entry): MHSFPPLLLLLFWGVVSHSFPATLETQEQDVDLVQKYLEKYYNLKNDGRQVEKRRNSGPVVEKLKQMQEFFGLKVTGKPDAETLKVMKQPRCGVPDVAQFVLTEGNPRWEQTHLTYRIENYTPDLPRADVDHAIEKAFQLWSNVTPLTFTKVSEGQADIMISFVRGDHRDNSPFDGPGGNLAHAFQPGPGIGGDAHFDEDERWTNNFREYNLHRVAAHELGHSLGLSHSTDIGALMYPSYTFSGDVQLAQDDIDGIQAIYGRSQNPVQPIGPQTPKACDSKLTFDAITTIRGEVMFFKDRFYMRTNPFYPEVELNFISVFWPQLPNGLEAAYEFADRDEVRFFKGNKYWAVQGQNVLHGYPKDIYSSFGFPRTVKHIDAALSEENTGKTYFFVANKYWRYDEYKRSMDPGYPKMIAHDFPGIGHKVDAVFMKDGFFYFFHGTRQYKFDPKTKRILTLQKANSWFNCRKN

[3] = biological target: 72 kDa type IV collagenase (Homo sapiens, UniProt P08253); test: Inhibition of MMP-2 (unknown origin)
Sequence of 72 kDa type IV collagenase (P08253 whole entry): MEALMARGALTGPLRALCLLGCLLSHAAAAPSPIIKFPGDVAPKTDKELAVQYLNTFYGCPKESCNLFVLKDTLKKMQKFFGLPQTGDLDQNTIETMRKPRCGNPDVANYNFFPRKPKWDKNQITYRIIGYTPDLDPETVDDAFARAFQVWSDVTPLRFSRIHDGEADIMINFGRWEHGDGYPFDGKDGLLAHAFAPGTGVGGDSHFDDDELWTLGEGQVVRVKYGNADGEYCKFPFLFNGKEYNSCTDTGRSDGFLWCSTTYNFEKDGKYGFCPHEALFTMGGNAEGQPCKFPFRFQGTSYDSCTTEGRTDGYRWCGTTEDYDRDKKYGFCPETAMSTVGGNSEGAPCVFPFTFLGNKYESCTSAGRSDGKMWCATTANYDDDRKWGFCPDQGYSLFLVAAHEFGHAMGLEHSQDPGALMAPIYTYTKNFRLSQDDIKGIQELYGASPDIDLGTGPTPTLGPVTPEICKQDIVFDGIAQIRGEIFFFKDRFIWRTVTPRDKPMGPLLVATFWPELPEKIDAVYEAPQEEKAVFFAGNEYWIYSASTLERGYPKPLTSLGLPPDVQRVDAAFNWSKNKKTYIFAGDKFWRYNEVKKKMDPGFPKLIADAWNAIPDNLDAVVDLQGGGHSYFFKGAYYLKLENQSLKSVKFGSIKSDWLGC

[4] = Half life in cynomolgus monkey at 3 mg/kg, iv; format: ADME, organism-based, Macaca fascicularis; set-up: dose 3 mg/kg, route intravenous; conditions: in vivo
[5] = AUC in cynomolgus monkey at 3 mg/kg, po; format: ADME, organism-based, Macaca fascicularis; set-up: dose 3 mg/kg, route oral; conditions: plasma
[6] = biological target: T2, Aromatase (Homo sapiens, UniProt P11511); test: Inhibition of aromatase (unknown origin)
T2 sequence (P11511 whole entry): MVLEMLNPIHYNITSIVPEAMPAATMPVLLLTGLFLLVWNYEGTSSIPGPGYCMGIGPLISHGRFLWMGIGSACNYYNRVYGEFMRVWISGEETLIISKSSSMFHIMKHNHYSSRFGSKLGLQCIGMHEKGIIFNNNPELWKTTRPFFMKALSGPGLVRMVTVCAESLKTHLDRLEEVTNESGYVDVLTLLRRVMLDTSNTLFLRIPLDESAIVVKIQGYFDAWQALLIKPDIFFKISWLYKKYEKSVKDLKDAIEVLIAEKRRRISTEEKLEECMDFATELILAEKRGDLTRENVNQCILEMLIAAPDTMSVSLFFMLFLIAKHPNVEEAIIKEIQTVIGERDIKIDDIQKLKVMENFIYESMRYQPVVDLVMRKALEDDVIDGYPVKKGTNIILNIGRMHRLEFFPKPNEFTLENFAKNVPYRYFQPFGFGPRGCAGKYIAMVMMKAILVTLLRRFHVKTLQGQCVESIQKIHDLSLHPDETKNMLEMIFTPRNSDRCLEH

[7] = Cytotoxicity against human MOLT3 cells; format: functional, cell-based; conditions: MOLT-3
[8] = tested on: HL-60; test: Cytotoxicity against human HL60 cells; format: functional, cell-based
[9] = biological target: Matrix metalloproteinase-9 (Homo sapiens, UniProt P14780); test: Inhibition of MMP-9 (unknown origin)
Sequence of Matrix metalloproteinase-9 (P14780 whole entry): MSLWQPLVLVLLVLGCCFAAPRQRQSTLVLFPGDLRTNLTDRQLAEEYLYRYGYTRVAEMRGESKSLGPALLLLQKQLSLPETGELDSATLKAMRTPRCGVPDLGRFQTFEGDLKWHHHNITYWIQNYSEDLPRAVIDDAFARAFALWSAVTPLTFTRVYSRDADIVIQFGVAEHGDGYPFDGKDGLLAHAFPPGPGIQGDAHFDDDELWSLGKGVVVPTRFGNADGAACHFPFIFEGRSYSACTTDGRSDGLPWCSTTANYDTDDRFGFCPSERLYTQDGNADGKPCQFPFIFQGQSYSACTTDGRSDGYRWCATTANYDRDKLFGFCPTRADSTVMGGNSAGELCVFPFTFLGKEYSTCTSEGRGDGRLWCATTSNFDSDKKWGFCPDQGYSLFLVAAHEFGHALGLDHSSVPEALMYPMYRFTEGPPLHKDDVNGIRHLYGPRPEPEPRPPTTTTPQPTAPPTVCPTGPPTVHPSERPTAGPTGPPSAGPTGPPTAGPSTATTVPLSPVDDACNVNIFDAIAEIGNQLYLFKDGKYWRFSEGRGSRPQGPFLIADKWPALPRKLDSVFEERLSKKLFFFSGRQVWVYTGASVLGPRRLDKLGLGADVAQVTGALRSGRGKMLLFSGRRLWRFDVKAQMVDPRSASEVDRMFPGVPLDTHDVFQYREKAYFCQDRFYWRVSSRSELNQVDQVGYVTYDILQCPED

[10] = tested on: HUVEC; test: Antiproliferative activity against bFGF-treated HUVEC; format: functional, cell-based; conditions: Homo sapiens
[11] = Selectivity index, ratio of IC50 for human KB3-1 cells to IC50 for bFGF-treated HUVEC; set-up: species or system KB 3-1
[12] = tested on: PC-3; test: Cytotoxicity against human PC3 cells assessed as growth inhibition after 48 hrs by MTT assay; format: functional, cell-based; conditions: PC-3, 48 h
[13] = tested on: PC-3; test: Induction of apoptosis in human PC3 cells at 10 uM after 24 hrs by propidium iodide/Hochest33342 staining-based flow cytometry (reference value: 0.05%); format: functional
[14] = Cytotoxicity against human RPE1 cells assessed as cell viability after 24 to 72 hrs by MTT assay; format: cell-based, TERT-RPE1; conditions: RPE-1
[15] = tested on: P388; test: Cytotoxicity against mouse P388 cells assessed as growth inhibition after 5 days by MTT assay; format: functional, cell-based; conditions: P388, 120 h

Structure (SMILES): CC[C@@]1(c2cccc(Oc3cc(Cn4ccnc4)ccc3C#N)c2)CCCCN(C)C1=O
- IC50 [1]: 5.8 nM

Structure (SMILES): C[C@@H]1OC(C)(C)O[C@H]1C(CS(=O)(=O)c1ccc(Oc2ccc(OC(F)(F)F)cc2)cc1)N(O)C=O (stereo partly specified)
- IC50 [2]: > 50000 nM
- IC50 [3]: 1.9 nM
- half-life [4]: 19.5 h
- AUC [5]: 21 µM·h

Structure (SMILES): CC1(C)OC[C@H]([C@@H](CS(=O)(=O)c2ccc(Oc3ccc(OC(F)(F)F)cc3)cc2)N(O)C=O)O1
- half-life [4]: 16.8 h
- AUC [5]: 53 µM·h

Structure (SMILES): N#Cc1ccc(Cn2ccnc2)cc1Oc1ccc(Cl)cc1Cl
- IC50 [1]: 280 nM

Structure (SMILES): COc1cccc(Oc2cc(Cn3ccnc3)ccc2C#N)c1OC
- IC50 [1]: 15000 nM

Structure (SMILES): N#Cc1ccc(Cn2ccnc2)cc1Oc1ccccc1
- IC50 [1]: 3700 nM

Structure (SMILES): CC[C@@]1(c2cccc(Oc3cc([C@](C)(N)c4cncn4C)ccc3C#N)c2)CCCCN(C)C1=O
- IC50 [1]: 3.6 nM

Structure (SMILES): O=CN(O)C(CS(=O)(=O)c1ccc(Oc2ccc(OC(F)(F)F)cc2)cc1)C1CCC2(CC1)OCCO2 (stereo unspecified)
- IC50 [2]: > 50000 nM

Structure (SMILES): O=CN(O)C(COCCO)CS(=O)(=O)c1ccc(Oc2ccc(OC(F)(F)F)cc2)cc1 (stereo unspecified)
- half-life [4]: 1.91 h

Structure (SMILES): Cc1cc(O)cc2c1Oc1cc(O)cc(C)c1C(=O)O2
- IC50 [6]: 5300 nM

Structure (SMILES): COc1cc(C)cc(Oc2c(C)cc(OC)cc2OC)c1
- IC50 [7]: 1400 nM
- IC50 [8]: 2200 nM

Structure (SMILES): O=CN(O)C(Cc1ccc(C(=O)O)cc1)CS(=O)(=O)c1ccc(Oc2ccc(OC(F)(F)F)cc2)cc1 (stereo unspecified)
- IC50 [2]: > 50000 nM
- IC50 [3]: 0.53 nM
- IC50 [9]: 0.53 nM
- AUC [5]: 16 µM·h

Structure (SMILES): O=CN(O)C(CS(=O)(=O)c1ccc(Oc2ccc(OC(F)(F)F)cc2)cc1)[C@H]1CCCO1 (stereo partly specified)
- IC50 [2]: > 50000 nM
- IC50 [3]: 0.61 nM
- IC50 [9]: 0.32 nM
- AUC [5]: 26 µM·h

Structure (SMILES): CC1(C)OC[C@H](CC(CS(=O)(=O)c2ccc(Oc3ccc(OC(F)(F)F)cc3)cc2)N(O)C=O)O1 (stereo partly specified)
- IC50 [2]: > 50000 nM
- IC50 [3]: 1.5 nM
- IC50 [9]: 5.5 nM
- AUC [5]: 2 µM·h

Structure (SMILES): O=C1CCc2cc(Br)c(c(Br)c2)Oc2cc(ccc2O)CCC(=O)NCCc2cc(Br)c(c(Br)c2)Oc2cc(cc(Br)c2O)CCN1
- IC50 [10]: 4000 nM
- Ratio IC50 [11]: 1.6

Structure (SMILES): N[C@@H]1Cc2cc(Br)c(c(Br)c2)Oc2cc(ccc2O)C[C@H](N)C(=O)NCCc2cc(Br)c(c(Br)c2)Oc2cc(cc(Br)c2O)CCNC1=O
- IC50 [10]: 610 nM
- Ratio IC50 [11]: 26.2

Structure (SMILES): Nc1cc2cc(c1O)Oc1c(Br)cc(cc1Br)CCNC(=O)/C(=N/O)Cc1cc(N)c(O)c(c1)Oc1c(Br)cc(cc1Br)C/C(=N/O)C(=O)NCC2
- IC50 [10]: 960 nM
- Ratio IC50 [11]: 3.4

Structure (SMILES): COc1ccc2cc1Oc1ccc(cc1)CCc1ccc(c(O)c1)Oc1cccc(c1)CC2
- IC50 [12]: 7980 nM
- Activity [13]: 9.4%
- IC50 [14]: 50000 nM

Structure (SMILES): COc1ccc(O)c2c1Oc1cccc(c1)CCc1ccc(O)c(c1)Oc1ccc(cc1)CC2
- IC50 [12]: 5450 nM
- Activity [13]: 51.62%
- IC50 [14]: 50000 nM

Structure (SMILES): CCC1(c2cccc(Oc3cc(C(N)c4cncn4C)ccc3C#N)c2)CCCCN(C)C1=O (stereo unspecified)
- IC50 [1]: 8 nM

Structure (SMILES): O=CN(O)C(CS(=O)(=O)c1ccc(Oc2ccc(OC(F)(F)F)cc2)cc1)[C@H](O)CO (stereo partly specified)
- half-life [4]: 1 h
- AUC [5]: 3 µM·h

Structure (SMILES): CCC1(c2cccc(Oc3cc(C(C)(N)c4cncn4C)ccc3C#N)c2)CCCCN(C)C1=O (mixture of isomers)
- IC50 [1]: 5.1 nM

Structure (SMILES): CCC1(c2cccc(Oc3cc(Cc4cncn4C)ccc3C#N)c2)CCCCN(C)C1=O (racemic)
- IC50 [1]: 10 nM

Structure (SMILES): CCC1(c2cccc(Oc3cc(Cn4ccnc4)ccc3C#N)c2)CCCCN(C)C1=O (racemic)
- IC50 [1]: 7.1 nM

Structure (SMILES): O=C1N/C=C/c2ccc(c(Br)c2)Oc2cc(cc(Br)c2O)CCNC(=O)/C(=N/O)Cc2cc(Br)c(c(Br)c2)Oc2cc(cc(Br)c2O)C/C1=N\O [BASTADIN 4]
- IC50 [10]: 53 nM
- Ratio IC50 [11]: 38

Structure (SMILES): O=C1NCCc2cc(Br)c(O)c(c2)Oc2ccc(cc2Br)CCNC(=O)/C(=N\O)Cc2cc(Br)c(O)c(c2)Oc2c(Br)cc(cc2Br)C/C1=N/O [BASTADIN 5]
- IC50 [10]: 62 nM
- Ratio IC50 [11]: 76

Structure (SMILES): O=C1NCCc2cc(Br)c(O)c(c2)Oc2c(Br)cc(cc2Br)CCNC(=O)/C(=N/O)Cc2cc(Br)c(O)c(c2)Oc2c(Br)cc(cc2Br)C/C1=N\O [BASTADIN 6]
- IC50 [10]: 52 nM
- Ratio IC50 [11]: 41

Structure (SMILES): O=C1N/C=C/c2ccc(c(Br)c2)Oc2cc(cc(Br)c2O)CCNC(=O)/C(=N/O)Cc2ccc(c(Br)c2)Oc2cc(cc(Br)c2O)C/C1=N\O [BASTADIN 7]
- IC50 [10]: 54 nM
- Ratio IC50 [11]: 56

Structure (SMILES): O=C1N/C=C/c2ccc(c(Br)c2)Oc2cc(ccc2O)CCNC(=O)/C(=N/O)Cc2cc(Br)c(c(Br)c2)Oc2cc(cc(Br)c2O)C/C1=N\O [BASTADIN 11]
- IC50 [10]: 53 nM
- Ratio IC50 [11]: 38

Structure (SMILES): O=C1NCCc2ccc(c(Br)c2)Oc2cc(ccc2O)CCNC(=O)/C(=N/O)Cc2cc(Br)c(O)c(c2)Oc2c(Br)cc(cc2Br)C/C1=N\O [BASTADIN 13]
- IC50 [10]: 520 nM
- Ratio IC50 [11]: 14

Structure (SMILES): O=C1NCCc2ccc(c(Br)c2)Oc2cc(cc(Br)c2O)CCNC(=O)/C(=N/O)Cc2cc(Br)c(O)c(c2)Oc2c(Br)cc(cc2Br)C/C1=N\O [BASTADIN 19]
- IC50 [10]: 120 nM
- Ratio IC50 [11]: 19

Structure (SMILES): COc1ccc(/C=C\c2cc(OC)c(OC)c(OC)c2)cc1O [COMBRETASTATIN A4]
- IC50 [15]: 2.6 nM

Structure (SMILES): COc1cc([C@@H]2c3cc4c(cc3[C@@H](O[C@@H]3O[C@@H]5CO[C@@H](C)O[C@H]5[C@H](O)[C@H]3O)[C@H]3COC(=O)[C@H]23)OCO4)cc(OC)c1O [ETOPOSIDE]
- IC50 [7]: 20 nM
- IC50 [8]: 610 nM

Structure (SMILES): Oc1ccc2c(c1)CCc1ccc(cc1)Oc1cc(ccc1O)CCc1ccc-2c(O)c1 [RICCARDI C]
- IC50 [12]: 3220 nM
- Activity [13]: 6.21%
- IC50 [14]: 50000 nM
